Tests used:
JH2 domain of human Tyk2 = JH2 domain of human Tyk2 (Homo sapiens (Human), UniProt P29597); assay: JH2 Biochemical Assay (TR-FRET probe displacement); assay type: binding; conditions: TR-FRET probe displacement, JH2 domain of human Tyk2
Tyk2 = Tyk2 (Homo sapiens (Human), UniProt P29597); assay: pSTAT4 Cell Assay (MSD, NK92 cells); assay type: cell-based; conditions: MSD
Chain of Tyk2 (P29597 whole entry): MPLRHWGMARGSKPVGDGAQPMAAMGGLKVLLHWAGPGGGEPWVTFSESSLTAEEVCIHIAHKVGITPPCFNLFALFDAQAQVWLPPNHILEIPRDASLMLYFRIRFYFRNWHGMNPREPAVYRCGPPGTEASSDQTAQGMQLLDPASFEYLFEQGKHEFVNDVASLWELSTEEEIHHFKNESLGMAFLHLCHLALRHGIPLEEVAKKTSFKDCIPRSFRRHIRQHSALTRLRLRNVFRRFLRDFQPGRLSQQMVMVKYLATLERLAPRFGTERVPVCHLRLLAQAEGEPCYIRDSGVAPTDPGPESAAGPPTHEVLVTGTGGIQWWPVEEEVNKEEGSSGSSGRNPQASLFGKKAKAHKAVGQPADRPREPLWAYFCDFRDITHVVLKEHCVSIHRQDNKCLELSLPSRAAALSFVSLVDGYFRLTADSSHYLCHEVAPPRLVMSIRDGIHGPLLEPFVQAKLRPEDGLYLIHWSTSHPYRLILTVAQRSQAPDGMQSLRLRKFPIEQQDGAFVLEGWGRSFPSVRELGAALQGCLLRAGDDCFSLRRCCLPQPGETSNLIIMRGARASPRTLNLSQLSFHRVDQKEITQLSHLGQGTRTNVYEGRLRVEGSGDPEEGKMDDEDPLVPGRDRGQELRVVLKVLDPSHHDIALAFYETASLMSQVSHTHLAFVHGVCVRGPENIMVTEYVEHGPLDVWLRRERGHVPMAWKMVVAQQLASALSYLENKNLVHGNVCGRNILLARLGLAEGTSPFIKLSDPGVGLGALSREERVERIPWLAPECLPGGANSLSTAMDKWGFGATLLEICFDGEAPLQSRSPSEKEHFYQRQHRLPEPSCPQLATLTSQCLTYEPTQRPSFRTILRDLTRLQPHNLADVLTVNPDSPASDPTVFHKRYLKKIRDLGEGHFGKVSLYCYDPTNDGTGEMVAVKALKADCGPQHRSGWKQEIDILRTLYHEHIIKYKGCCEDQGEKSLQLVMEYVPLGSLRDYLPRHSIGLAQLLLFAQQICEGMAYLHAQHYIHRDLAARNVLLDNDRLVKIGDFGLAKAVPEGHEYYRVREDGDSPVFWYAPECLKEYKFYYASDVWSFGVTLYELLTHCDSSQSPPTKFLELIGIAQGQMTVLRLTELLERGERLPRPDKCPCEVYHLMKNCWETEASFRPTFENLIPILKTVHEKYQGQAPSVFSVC

Chain of JH2 domain of human Tyk2 (P29597 575-876): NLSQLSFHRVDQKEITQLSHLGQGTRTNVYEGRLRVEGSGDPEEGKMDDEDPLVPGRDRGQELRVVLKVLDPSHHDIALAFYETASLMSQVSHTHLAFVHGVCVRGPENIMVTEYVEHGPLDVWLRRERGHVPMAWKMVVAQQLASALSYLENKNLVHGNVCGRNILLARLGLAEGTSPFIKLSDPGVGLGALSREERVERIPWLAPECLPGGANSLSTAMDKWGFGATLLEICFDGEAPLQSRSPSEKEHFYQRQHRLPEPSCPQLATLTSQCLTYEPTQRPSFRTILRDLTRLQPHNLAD

SMILES: CCOc1cnc(NC(C)=O)cc1Nc1cc(-c2cnn(C3CCC3)c2)nc(C(C)(F)F)n1 [Example 312, N-(4-((6-(1-cyclobutyl-1H-pyrazol-4-yl)-2-(1,1-difluoroethyl)pyrimidin-4-yl)amino)-5-ethoxypyridin-2-yl)acetamide]
- IC50 (JH2 domain of human Tyk2): ≤ 10 nM
- IC50 (Tyk2): ≤ 10 nM

SMILES: CCOc1cnc(NC(C)=O)cc1Nc1cc(-c2cnn(CCN3CCOCC3)c2)nc(C(C)(F)F)n1 [Example 313, N-(4-((2-(1,1-difluoroethyl)-6-(1-(2-morpholinoethyl)-1H-pyrazol-4-yl)pyrimidin-4-yl)amino)-5-ethoxypyridin-2-yl)acetamide]
- IC50 (JH2 domain of human Tyk2): ≤ 10 nM
- IC50 (Tyk2): 10 to 100 nM

SMILES: CC(=O)Nc1cc(Nc2cc(C)nc(C(C)(F)F)n2)c(OC[C@H](C)OC(C)(C)C)cn1 [Example 318, (S)-N-(5-(2-(tert-butoxy)propoxy)-4-((2-(1,1-difluoroethyl)-6-methylpyrimidin-4-yl)amino)pyridin-2-yl)acetamide]
- IC50 (JH2 domain of human Tyk2): ≤ 10 nM
- IC50 (Tyk2): 100 to 1000 nM

SMILES: CCc1cc(COc2cnc(NC(C)=O)cc2Nc2cc(C)nc(C(C)(F)F)n2)on1 [Example 319, N-(4-((2-(1,1-difluoroethyl)-6-methylpyrimidin-4-yl)amino)-5-((3-ethylisoxazol-5-yl)methoxy)pyridin-2-yl)acetamide]
- IC50 (JH2 domain of human Tyk2): ≤ 10 nM
- IC50 (Tyk2): 10 to 100 nM

SMILES: CC(=O)Nc1cc(Nc2cc(C)nc(C(C)(F)F)n2)c(OCc2cnc(C)o2)cn1 [Example 320, N-(4-((2-(1,1-difluoroethyl)-6-methylpyrimidin-4-yl)amino)-5-((2-methyloxazol-5-yl)methoxy)pyridin-2-yl)acetamide]
- IC50 (JH2 domain of human Tyk2): ≤ 10 nM
- IC50 (Tyk2): 10 to 100 nM

SMILES: CC(=O)Nc1cc(Nc2cc(C)nc(C(C)(F)F)n2)c(OC[C@@H](C)OC(C)(C)C)cn1 [Example 321, (R)-N-(5-(2-(tert-butoxy)propoxy)-4-((2-(1,1-difluoroethyl)-6-methylpyrimidin-4-yl)amino)pyridin-2-yl)acetamide]
- IC50 (JH2 domain of human Tyk2): ≤ 10 nM
- IC50 (Tyk2): 10 to 100 nM

SMILES: COc1cc(COc2cnc(NC(C)=O)cc2Nc2cc(C)nc(C(C)(F)F)n2)on1 [Example 322, N-(4-((2-(1,1-difluoroethyl)-6-methylpyrimidin-4-yl)amino)-5-((3-methoxyisoxazol-5-yl)methoxy)pyridin-2-yl)acetamide]
- IC50 (JH2 domain of human Tyk2): ≤ 10 nM
- IC50 (Tyk2): 10 to 100 nM

SMILES: CC(=O)Nc1cc(Nc2cc(C)nc(C(C)(F)F)n2)c(OCc2ccsn2)cn1 [Example 323, N-(4-((2-(1,1-difluoroethyl)-6-methylpyrimidin-4-yl)amino)-5-(isothiazol-3-ylmethoxy)pyridin-2-yl)acetamide]
- IC50 (JH2 domain of human Tyk2): ≤ 10 nM
- IC50 (Tyk2): ≤ 10 nM

SMILES: CC(=O)Nc1cc(Nc2cc(C)nc(C(C)(F)F)n2)c(OCC23COCC(C2)C3)cn1 [Example 324, N-(5-((3-oxabicyclo[3.1.1]heptan-1-yl)methoxy)-4-((2-(1,1-difluoroethyl)-6-methylpyrimidin-4-yl)amino)pyridin-2-yl)acetamide]
- IC50 (JH2 domain of human Tyk2): ≤ 10 nM
- IC50 (Tyk2): 10 to 100 nM

SMILES: CC(=O)Nc1cc(Nc2cc(C)nc(C(C)(F)F)n2)c(OCc2nc(C)co2)cn1 [Example 325, N-(4-((2-(1,1-difluoroethyl)-6-methylpyrimidin-4-yl)amino)-5-((4-methyloxazol-2-yl)methoxy)pyridin-2-yl)acetamide]
- IC50 (JH2 domain of human Tyk2): ≤ 10 nM
- IC50 (Tyk2): 10 to 100 nM

SMILES: COCC1(COc2cnc(NC(C)=O)cc2Nc2cc(C)nc(C(C)(F)F)n2)CC1 [Example 326, N-(4-((2-(1,1-difluoroethyl)-6-methylpyrimidin-4-yl)amino)-5-((1-(methoxymethyl)cyclopropyl)methoxy)pyridin-2-yl)acetamide]
- IC50 (JH2 domain of human Tyk2): ≤ 10 nM
- IC50 (Tyk2): 10 to 100 nM

SMILES: CCc1cnc(COc2cnc(NC(C)=O)cc2Nc2cc(C)nc(C(C)(F)F)n2)o1 [Example 327, N-(4-((2-(1,1-difluoroethyl)-6-methylpyrimidin-4-yl)amino)-5-((5-ethyloxazol-2-yl)methoxy)pyridin-2-yl)acetamide]
- IC50 (JH2 domain of human Tyk2): ≤ 10 nM
- IC50 (Tyk2): 10 to 100 nM

SMILES: CC(=O)Nc1cc(Nc2cc(C)nc(C(C)(F)F)n2)c(OCCc2cccnc2F)cn1 [Example 328, N-(4-((2-(1,1-difluoroethyl)-6-methylpyrimidin-4-yl)amino)-5-(2-(2-fluoropyridin-3-yl)ethoxy)pyridin-2-yl)acetamide]
- IC50 (JH2 domain of human Tyk2): ≤ 10 nM
- IC50 (Tyk2): ≤ 10 nM

SMILES: CC(=O)Nc1cc(Nc2cc(C)nc(C(C)(F)F)n2)c(OCc2c(C)ncnc2C)cn1 [Example 330, N-(4-((2-(1,1-difluoroethyl)-6-methylpyrimidin-4-yl)amino)-5-((4,6-dimethylpyrimidin-5-yl)methoxy)pyridin-2-yl)acetamide]
- IC50 (JH2 domain of human Tyk2): 10 to 100 nM
- IC50 (Tyk2): ≥ 1000 nM

SMILES: CCc1noc(COc2cnc(NC(C)=O)cc2Nc2cc(C)nc(C(C)(F)F)n2)n1 [Example 331, N-(4-((2-(1,1-difluoroethyl)-6-methylpyrimidin-4-yl)amino)-5-((3-ethyl-1,2,4-oxadiazol-5-yl)methoxy)pyridin-2-yl)acetamide]
- IC50 (JH2 domain of human Tyk2): 10 to 100 nM
- IC50 (Tyk2): 100 to 1000 nM

SMILES: CC(=O)Nc1cc(Nc2cc(C)nc(C(C)(F)F)n2)c(OC[C@H]2C[C@H](F)C2)cn1 [Example 332, N-(4-((2-(1,1-difluoroethyl)-6-methylpyrimidin-4-yl)amino)-5-(((1r,3r)-3-fluorocyclobutyl)methoxy)pyridin-2-yl)acetamide]
- IC50 (JH2 domain of human Tyk2): ≤ 10 nM
- IC50 (Tyk2): 10 to 100 nM

SMILES: CC(=O)Nc1cc(Nc2cc(C)nc(C(C)(F)F)n2)c(OCc2ccc(C#N)o2)cn1 [Example 333, N-(5-((5-cyanofuran-2-yl)methoxy)-4-((2-(1,1-difluoroethyl)-6-methylpyrimidin-4-yl)amino)pyridin-2-yl)acetamide]
- IC50 (JH2 domain of human Tyk2): ≤ 10 nM
- IC50 (Tyk2): 10 to 100 nM

SMILES: CC(=O)Nc1cc(Nc2cc(C)nc(C(C)(F)F)n2)c(OCc2scnc2C)cn1 [Example 334, N-(4-((2-(1,1-difluoroethyl)-6-methylpyrimidin-4-yl)amino)-5-((4-methylthiazol-5-yl)methoxy)pyridin-2-yl)acetamide]
- IC50 (JH2 domain of human Tyk2): 10 to 100 nM
- IC50 (Tyk2): 100 to 1000 nM

SMILES: CC(=O)Nc1cc(Nc2cc(C)nc(C(C)(F)F)n2)c(OCc2conc2C)cn1 [Example 335, N-(4-((2-(1,1-difluoroethyl)-6-methylpyrimidin-4-yl)amino)-5-((3-methylisoxazol-4-yl)methoxy)pyridin-2-yl)acetamide]
- IC50 (JH2 domain of human Tyk2): ≤ 10 nM
- IC50 (Tyk2): 100 to 1000 nM

SMILES: COC1(COc2cnc(NC(C)=O)cc2Nc2cc(C)nc(C(C)(F)F)n2)CCOCC1 [Example 337, N-(4-((2-(1,1-difluoroethyl)-6-methylpyrimidin-4-yl)amino)-5-((4-methoxytetrahydro-2H-pyran-4-yl)methoxy)pyridin-2-yl)acetamide]
- IC50 (JH2 domain of human Tyk2): ≤ 10 nM
- IC50 (Tyk2): 10 to 100 nM

SMILES: CC(=O)Nc1cc(Nc2cc(C)nc(C(C)(F)F)n2)c(OCc2nc(C)c(C)o2)cn1 [Example 338, N-(4-((2-(1,1-difluoroethyl)-6-methylpyrimidin-4-yl)amino)-5-((4,5-dimethyloxazol-2-yl)methoxy)pyridin-2-yl)acetamide]
- IC50 (JH2 domain of human Tyk2): ≤ 10 nM
- IC50 (Tyk2): 10 to 100 nM

SMILES: CC(=O)Nc1cc(Nc2cc(C)nc(C(C)(F)F)n2)c(OCc2ncc(C)o2)cn1 [Example 341, N-(4-((2-(1,1-difluoroethyl)-6-methylpyrimidin-4-yl)amino)-5-((5-methyloxazol-2-yl)methoxy)pyridin-2-yl)acetamide]
- IC50 (JH2 domain of human Tyk2): ≤ 10 nM
- IC50 (Tyk2): 10 to 100 nM

Reference: patent US20260028365A1 (BIOGEN MA INC., priority 2022, published 2026)
